The record followed here is patent US20230097883A1, “ERGOTHIONEINE PET COMPOUNDS AND METHODS OF USE THEREOF” (VANDERBILT UNIVERSITY, priority 2021, published 2023).

Data set [1] can be described thus: Nickel assay: 2D-HPLC with nickel HisTrap column and His-tag antibodies. The format is binding. As for the experimental part: In principle, nickel is a transition metal like Fe, Cu and Zn. The nickel column can immobilize hexahistidine-tag (His-tag) recombinant proteins, such as recombinant antibodies harboring a His tag (His-Abs). In our experimental design, nickel forms a substantial coordination equilibrium with histidines via the imidazole ring structures to form a stable metal/ligand complex. This assay uses two different buffer reservoirs, a wash buffer (PBS) and an elution buffer (PBS containing 50 mM imidazole). To remove the His-Abs (14 KDa) from the nickel column, the washing buffer was switched to the elution buffer and the His-Abs dislodged from the column were detected by the 2D-HPLC (FIG. 3.1C, left). In a different phase of the experiment, the His-Abs solution was spiked with ERGO (14.5 mM) prior to injection into the HPLC system. […] The integrity of the eluted His-Abs was collected and confirmed by orbit trap mass spectrometry.
ERGO's metal-binding affinity was tested via a 2D-HPLC equipped with a nickel-based HisTrap HP column (Cytiva, Marlborough, Mass., USA). The 2D-HPLC was performed with a Hitachi LaChrom Elite L-2455 Diode Array Detector linked to a Hitachi L-2130 pump (Hitachi High-Technologies, Corp., Tokyo, Japan). […]

The subject of another data set is oxidative stress. Description: Dynamic microPET uptake and retention of [11C]ERGO in brains of 5XFAD versus WT mice. In kind it is in vivo, mouse. Particulars: 10-month-old, n=4, 14.8 MBq in 0.1 mL via tail vein. As for the experimental part:
Dynamic uptake and retention of [^11C]ERGO radioligand. Two cohorts of age-matched mice (10-month-old, n=4, each), including 5XFAD and WT animals, were injected with a consistent amount of 14.8 MBq of [^11C]ERGO in 0.1 mL via the tail vein prior to acquiring dynamic imaging. […] In this work, we decided to run 20-min dynamic scans to test, as a proof-of-concept, whether the affinity of ERGO for radicals and/or metals, which are integrated in or very closely associated with Abeta aggregates, would trap the probe. […] The mean percent of ID/g in the brains of 5XFAD mice (n=4) were 0.81±0.09, 0.72±0.09, 0.72±0.10, 0.71±0.12, 0.72±0.08, 0.83±0.10 for cortex, hippocampus, striatum, thalamus, cerebellum and whole brain, respectively, whereas for WT mice (n=4), the values were 0.52±0.13, 0.47±0.18, 0.47±0.15, 0.42±0.18, 0.51±0.13, 0.55±0.14. […] 5XFAD brains are associated with high levels of GFAP and IBA1 expression. After PET/CT imaging, animals underwent through the cardiac perfusion process, and the brains were embedded in OCT solution for micro-sectioning. […] The hippocampal regions of 5XFAD mice, including the dentate gyrus (DG), Cornu ammonis (CA) and the surrounding regions are populated with astrocytes, which were detected and quantified by immunostaining using anti-GFAP antibody. […] Quantitatively, about 2-fold higher levels of this inflammatory marker is found in 5XFAD versus control mice (*p<0.05). In a similar observation, 5XFAD mouse brains have greater numbers of IBA1-positive activated microglia (arrows) compared to WT counterparts.
Dynamic PET imaging. The dynamic acquisition was divided into twelve 5 sec frames, four 60 sec frames, five 120 sec frames, three 5 min frames, and six 10 min scans. The data from all possible lines of response (LOR) were saved in the list mode raw data format. The raw data were then binned into 3D sinograms with a span of 3 and ring difference of 47. The images were reconstructed into transaxial slices (128×128×159) with voxel sizes of 0.0815×0.0815×0.0796 cm^3, using the MAP algorithm with 16 subsets, 4 iterations, and a beta of 0.0468. For anatomical co-registration, immediately following the PET scans, the mice received a CT scan in a NanoSPECT/CT (Mediso, Wash. D.C.) at an X-ray beam intensity of 90 mAs and x-ray peak voltage of 45 kVp. The CT images were reconstructed into 170×170×186 voxels at a voxel size of 0.4×0.4×0.4 mm^3. The PET/CT images were uploaded into Amide software (www.sourceforge.com), co-registered to an MRI template made in-house, and volumetric regions-of-interest were drawn around the cortex, hippocampus, striatum, thalamus, and cerebellum in addition to the whole brain. The PET images were normalized to the injected dose, and the time-activity-curves (TACs) of the mean activity within the ROIs were estimated for the entire duration of the scans.

Molecules are shown by their SMILES. Entries after “also recorded” stand apart in the source; their conditions may differ.

Take `C[N+](C)(C)[C@@H](Cc1c[nH]c(=S)[nH]1)C(=O)[O-]` [ERGO, L-ergothioneine]: the “elution of His-tag antibodies from the nickel column in the presence of ERGO” value in data set [1] (His-Abs solution spiked with ERGO 14.5 mM, PBS wash buffer) was “eluted from the nickel column immediately by the wash buffer; also recorded: washed out immediately”. The “elution of His-tag camelid antibodies from the nickel column in the presence of ERGO” value in data set [1] (antibody injected with addition of ERGO 50 nM, PBS mobile phase) is recorded as “Right at the beginning of the run, His-tag camelid antibodies were eluted”.
In the case of `C[N+](C)([11CH3])[C@@H](Cc1c[nH]c(=S)[nH]1)C(=O)[O-]` [[^11C]ERGO], in the data set with oxidative stress (5XFAD mice), the “mean percent of ID/g, cerebellum” value is recorded as 0.72±0.08% of ID/g; the “mean percent of ID/g, cortex” value was 0.81±0.09% of ID/g; the “mean percent of ID/g, hippocampus” value is reported as 0.72±0.09% of ID/g; the “mean percent of ID/g, striatum” value is on record as 0.72±0.10% of ID/g. Besides, in the data set on oxidative stress (5XFAD mice), the “mean percent of ID/g, thalamus” value is reported as 0.71±0.12% of ID/g and the “mean percent of ID/g, whole brain” value is 0.83±0.10% of ID/g. Besides, in the data set on oxidative stress (WT mice), the “mean percent of ID/g, cerebellum” value is given as 0.51±0.13% of ID/g; the “mean percent of ID/g, cortex” value was 0.52±0.13% of ID/g; the “mean percent of ID/g, hippocampus” value is recorded as 0.47±0.18% of ID/g; the “mean percent of ID/g, striatum” value was 0.47±0.15% of ID/g. In the data set with oxidative stress (WT mice), the “mean percent of ID/g, thalamus” value is on record as 0.42±0.18% of ID/g and the “mean percent of ID/g, whole brain” value is listed as 0.55±0.14% of ID/g.
